According to ChEMBL document CHEMBL4665740, “Discovery of noscapine derivatives as potential β-tubulin inhibitors” (Bioorg Med Chem Lett, 2020):
Blank lines part the entries; values can stand above or below the compound they belong to. The source made the active and inactive calls. The calls are words filed in the database; no cut-off is given here.

Legend:
[1] = system: MCF7; assay: Cytotoxicity against human MCF7 cells assessed as mortality at 20 uM after 48 hrs by MTT assay; type: functional, cell-based
[2] = biological target: Tubulin beta; assay: Binding affinity to CM5 chip immobilized beta tubulin (unknown origin) assessed as thermodynamic constants by SPR assay; type: protein assay, Homo sapiens
[3] = system: MCF7; assay: Cytotoxicity against human MCF7 cells assessed as mortality at 20 uM after 48 hrs by MTT assay relative to control; type: functional

- Kd [2]: 132 nM
Compound: CCC(O)Cn1cc(CN2CCc3c(Br)c4c(c(OC)c3[C@@H]2[C@H]2OC(=O)c3c2ccc(OC)c3OC)OCO4)nn1 (some centres not stated)
- Activity [1]: Active

Compound: COc1ccc2c(c1OC)C(=O)O[C@@H]2[C@H]1c2c(c(Br)c3c(c2OC)OCO3)CCN1Cc1cn(-c2ccc(F)cc2)nn1
- Activity [1]: Active

Compound: COc1ccc(-n2cc(CN3CCc4c(Br)c5c(c(OC)c4[C@@H]3[C@H]3OC(=O)c4c3ccc(OC)c4OC)OCO5)nn2)cc1OC
- Activity [1]: Active

Compound: COc1ccc2c(c1OC)C(=O)O[C@@H]2[C@H]1c2c(cc3c(c2OC)OCO3)CCN1Cc1cn(Cc2ccccc2)nn1
- Activity [3]: 60%
- Kd [2]: 133 nM

Compound: COc1ccc2c(c1OC)C(=O)O[C@@H]2[C@H]1c2c(c(Br)c3c(c2OC)OCO3)CCN1Cc1cn(CC(C)(C)O)nn1
- Activity [1]: Active

- Kd [2]: 374.3 nM
Compound: COc1ccc2c(c1OC)C(=O)O[C@@H]2[C@H]1c2c(c(Br)c3c(c2OC)OCO3)CCN1Cc1cn(-c2ccc(Cl)c(Cl)c2)nn1
- Activity [1]: Active

Compound: CCC(O)Cn1cc(CN2CCc3cc4c(c(OC)c3[C@@H]2[C@H]2OC(=O)c3c2ccc(OC)c3OC)OCO4)nn1 (some centres not stated)
- Activity [3]: 60%

Compound: COc1ccc2c(c1OC)C(=O)O[C@@H]2[C@H]1c2c(cc3c(c2OC)OCO3)CCN1Cc1cn(CC(C)(C)O)nn1
- Activity [1]: Active

- Kd [2]: 21.5 nM
Compound: COc1ccc2c(c1OC)C(=O)O[C@@H]2[C@H]1c2c(cc3c(c2OC)OCO3)CCN1Cc1cn(-c2ccc(F)cc2)nn1
- Activity [1]: Active

Compound: COc1ccc2c(c1OC)C(=O)O[C@@H]2[C@H]1c2c(cc3c(c2OC)OCO3)CCN1C [NOSCAPINE]
- Activity [3]: 20%
- Kd [2]: 579 nM

Compound: COc1ccc2c(c1OC)C(=O)O[C@@H]2[C@H]1c2c(c(Br)c3c(c2OC)OCO3)CCN1Cc1cn(-c2ccc(Br)cc2)nn1
- Activity [3]: 60%
- Kd [2]: 36.9 nM
